# Patent publication US20250382344A1, “Soluble GLP1/GIP/NPY2 Receptor Triple Agonists” (Boehringer Ingelheim International GmH, priority 2024, published 2025)
# Read-outs that look alike come from different tables or passages of the source.
# Columns and labels:
# hGIPR = target: T1, hGIPR (Homo sapiens, UniProt P48546); test: hGIPR CreLuc assay in 0.5% and 100% plasma (CHO CRE-luciferase reporter cells); assay type: cell-based; conditions: 0.5% human plasma, read-out: hGIPR 0.5% hP
# T1 construct: expressed in transfected cells; host or cells: CHO CRE-luciferase reporter cells
# T1 sequence (P48546 22-466): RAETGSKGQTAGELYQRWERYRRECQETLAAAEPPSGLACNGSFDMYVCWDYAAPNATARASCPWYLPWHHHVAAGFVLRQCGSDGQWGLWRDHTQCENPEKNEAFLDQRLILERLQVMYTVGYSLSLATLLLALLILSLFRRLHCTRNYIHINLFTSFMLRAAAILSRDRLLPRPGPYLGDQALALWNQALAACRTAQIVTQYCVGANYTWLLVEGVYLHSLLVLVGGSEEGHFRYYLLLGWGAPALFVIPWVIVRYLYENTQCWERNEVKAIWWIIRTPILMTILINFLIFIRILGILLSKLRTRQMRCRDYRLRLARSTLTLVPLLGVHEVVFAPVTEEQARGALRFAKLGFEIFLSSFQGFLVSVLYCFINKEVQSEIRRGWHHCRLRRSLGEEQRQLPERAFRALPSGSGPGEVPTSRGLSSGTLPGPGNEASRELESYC
# hNPY2R = target: T2, hNPY2R (Homo sapiens, UniProt P49146); test: hNPY2R CreLuc assay in 0.5% and 100% plasma (HEK-293 CRE-luciferase reporter cells); assay type: cell-based; conditions: HEK-293 reporter cells
# T2 construct: expressed in transfected cells; host or cells: HEK-293 CRE-luciferase reporter cells
# T2 sequence (P49146 1-381): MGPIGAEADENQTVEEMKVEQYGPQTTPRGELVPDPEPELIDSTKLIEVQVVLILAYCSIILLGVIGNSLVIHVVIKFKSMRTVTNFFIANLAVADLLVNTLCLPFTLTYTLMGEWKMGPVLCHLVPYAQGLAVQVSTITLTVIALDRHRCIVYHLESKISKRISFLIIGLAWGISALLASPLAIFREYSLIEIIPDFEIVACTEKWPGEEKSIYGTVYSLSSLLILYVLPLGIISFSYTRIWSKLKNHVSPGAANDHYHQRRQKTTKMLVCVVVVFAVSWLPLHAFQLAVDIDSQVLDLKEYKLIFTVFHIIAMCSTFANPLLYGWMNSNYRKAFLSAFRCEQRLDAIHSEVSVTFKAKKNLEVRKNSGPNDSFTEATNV
# [1] = Solubility in 0.1 M phosphate buffer at pH 7; assay type: physicochemical; conditions: 0.1 M phosphate buffer at pH 7, 10 mg/mL final peptide concentration, shaking 2 hours at room temperature, peptides as TFA-salts; measured sample pH 6.5-7.0
# [2] = 0.5% human plasma, read-out: hNPY2R 0.5% hP
# [3] = 100% human plasma, read-out: hNPY2R 100% hP
EC50 (hGIPR),EC50 (hNPY2R; [2]),solubility at 2 h [1],EC50 (hNPY2R; [3]),SMILES
0.5 nM,17.1 nM,9100 µg/mL,,"CC[C@H](C)[C@H](NC(=O)[C@H](CC(C)C)NC(=O)[C@H](Cc1c[nH]cn1)NC(=O)[C@H](CCCNC(=N)N)NC(=O)[C@@H](NC(=O)[C@H](Cc1ccccc1)NC(=O)[C@H](CCC(=O)O)NC(=O)C(C)(C)NC(=O)[C@H](CCC(N)=O)NC(=O)[C@H](C)NC(=O)[C@H](CCC(N)=O)NC(=O)[C@H](CCCCN)NC(=O)[C@H](CCC(=O)O)NC(=O)[C@H](CC(C)C)NC(=O)C(C)(C)NC(=O)[C@@H](NC(=O)[C@H](CO)NC(=O)[C@H](Cc1ccc(O)cc1)NC(=O)[C@H](CC(=O)O)NC(=O)[C@H](CO)NC(=O)[C@@H](NC(=O)[C@H](Cc1ccccc1)NC(=O)[C@@H](NC(=O)CNC(=O)[C@H](CCC(=O)O)NC(=O)C(C)(C)NC(=O)[C@@H](N)Cc1ccc(O)cc1)[C@@H](C)O)[C@@H](C)O)[C@@H](C)CC)C(C)C)C(=O)N[C@@H](CC(N)=O)C(=O)N[C@@H](CCCCNC(=O)[C@@H](N)CCCCNC(=O)[C@H](CCC(=O)O)NC(=O)CC[C@H](NC(=O)CC[C@H](NC(=O)CC[C@H](NC(=O)CC[C@H](NC(=O)CC[C@H](NC(=O)CC[C@H](NC(=O)CCCCCCCCCCCCCCCCC(=O)O)C(=O)O)C(=O)O)C(=O)O)C(=O)O)C(=O)O)C(=O)O)C(=O)N[C@@H](CC(C)C)C(=O)N[C@H](C(=O)N[C@@H](CCCNC(=N)N)C(=O)N[C@@H](CCC(N)=O)C(=O)N[C@@H](CCCNC(=N)N)C(=O)N[C@@H](Cc1ccc(O)cc1)C(N)=O)[C@@H](C)O [Compound 32, Y-Aib-E-G-T-F-T-S-D-Y-S-I-Aib-L-E-K-Q-A-Q-Aib-E-F-V-R-H-L-I-N-K(1,3)-L-T-R-Q-R-Y-NH2.C18DA-gGlu-gGlu-gGlu-gGlu-gGlu-gGlu-Glu-eLys(1,2)]"
0.2 nM,,5200 µg/mL,135 nM,"CC[C@H](C)[C@H](NC(=O)[C@H](CC(C)C)NC(=O)[C@H](Cc1c[nH]cn1)NC(=O)[C@H](CCCNC(=N)N)NC(=O)[C@@H](NC(=O)[C@H](Cc1ccccc1)NC(=O)[C@H](C)NC(=O)C(C)(C)NC(=O)[C@H](CCC(N)=O)NC(=O)[C@H](C)NC(=O)[C@H](CCC(N)=O)NC(=O)[C@H](CCCCN)NC(=O)[C@H](CCC(=O)O)NC(=O)[C@H](CC(C)C)NC(=O)C(C)(C)NC(=O)[C@@H](NC(=O)[C@H](CO)NC(=O)[C@H](Cc1ccc(O)cc1)NC(=O)[C@H](CC(=O)O)NC(=O)[C@H](CO)NC(=O)[C@@H](NC(=O)[C@H](Cc1ccccc1)NC(=O)[C@@H](NC(=O)CNC(=O)[C@H](CCC(=O)O)NC(=O)C(C)(C)NC(=O)[C@@H](N)Cc1ccc(O)cc1)[C@@H](C)O)[C@@H](C)O)[C@@H](C)CC)C(C)C)C(=O)N[C@@H](CC(N)=O)C(=O)N[C@@H](CCCCNC(=O)CCCCCNC(=O)CC[C@H](NC(=O)CC[C@H](NC(=O)CC[C@H](NC(=O)CC[C@H](NC(=O)CC[C@H](NC(=O)CC[C@H](NC(=O)CCCCCCCCCCCCCCCCCCC(=O)O)C(=O)O)C(=O)O)C(=O)O)C(=O)O)C(=O)O)C(=O)O)C(=O)NC(C)(C)C(=O)N[C@H](C(=O)N[C@@H](CCCNC(=N)N)C(=O)N[C@@H](CCC(N)=O)C(=O)N[C@@H](CCCNC(=N)N)C(=O)N[C@@H](Cc1ccc(O)cc1)C(N)=O)[C@@H](C)O [Compound 157, Y-Aib-E-G-T-F-T-S-D-Y-S-I-Aib-L-E-K-Q-A-Q-Aib-A-F-V-R-H-L-I-N-K(1,3)-Aib-T-R-Q-R-Y-NH2.C20DA-gGlu-gGlu-gGlu-gGlu-gGlu-gGlu-AHX(1,2)]"
0.6 nM,32.8 nM,5300 µg/mL,,"CC[C@H](C)[C@H](NC(=O)[C@H](CC(C)C)NC(=O)[C@H](Cc1c[nH]cn1)NC(=O)[C@H](CCCNC(=N)N)NC(=O)[C@@H](NC(=O)[C@H](Cc1ccccc1)NC(=O)[C@H](C)NC(=O)C(C)(C)NC(=O)[C@H](CCC(N)=O)NC(=O)[C@H](C)NC(=O)[C@H](CCC(N)=O)NC(=O)[C@H](CCCCN)NC(=O)[C@H](CCC(=O)O)NC(=O)[C@H](CC(C)C)NC(=O)C(C)(C)NC(=O)[C@@H](NC(=O)[C@H](CO)NC(=O)[C@H](Cc1ccc(O)cc1)NC(=O)[C@H](CC(=O)O)NC(=O)[C@H](CO)NC(=O)[C@@H](NC(=O)[C@H](Cc1ccccc1)NC(=O)[C@@H](NC(=O)CNC(=O)[C@H](CCC(=O)O)NC(=O)C(C)(C)NC(=O)[C@@H](N)Cc1ccc(O)cc1)[C@@H](C)O)[C@@H](C)O)[C@@H](C)CC)C(C)C)C(=O)N[C@@H](CC(N)=O)C(=O)N[C@@H](CCCCNC(=O)CC[C@H](NC(=O)CC[C@H](NC(=O)CC[C@H](NC(=O)CC[C@H](NC(=O)CC[C@H](NC(=O)CCCCCCCCCCCCCCCCCCC(=O)O)C(=O)O)C(=O)O)C(=O)O)C(=O)O)C(=O)O)C(=O)NC(C)(C)C(=O)N[C@H](C(=O)N[C@@H](CCCNC(=N)N)C(=O)N[C@@H](CCC(N)=O)C(=O)N[C@@H](CCCNC(=N)N)C(=O)N[C@@H](Cc1ccc(O)cc1)C(N)=O)[C@@H](C)O [Compound 176, Y-Aib-E-G-T-F-T-S-D-Y-S-I-Aib-L-E-K-Q-A-Q-Aib-A-F-V-R-H-L-I-N-K(1,3)-Aib-T-R-Q-R-Y-NH2.C20DA-gGlu-gGlu-gGlu-gGlu-gGlu(1,2)]"
0.7 nM,,8700 µg/mL,43.8 nM,"CC[C@H](C)[C@H](NC(=O)[C@H](CC(C)C)NC(=O)[C@H](Cc1c[nH]cn1)NC(=O)[C@H](CCCNC(=N)N)NC(=O)[C@@H](NC(=O)[C@H](Cc1ccccc1)NC(=O)[C@H](C)NC(=O)C(C)(C)NC(=O)[C@H](CCC(=O)O)NC(=O)[C@H](C)NC(=O)[C@H](CCC(N)=O)NC(=O)[C@H](CCCCN)NC(=O)[C@H](CCC(=O)O)NC(=O)[C@H](CC(C)C)NC(=O)C(C)(C)NC(=O)[C@@H](NC(=O)[C@H](CO)NC(=O)[C@H](Cc1ccc(O)cc1)NC(=O)[C@H](CC(=O)O)NC(=O)[C@H](CO)NC(=O)[C@@H](NC(=O)[C@H](Cc1ccccc1)NC(=O)[C@@H](NC(=O)CNC(=O)[C@H](CCC(=O)O)NC(=O)C(C)(C)NC(=O)[C@@H](N)Cc1ccc(O)cc1)[C@@H](C)O)[C@@H](C)O)[C@@H](C)CC)C(C)C)C(=O)N[C@@H](CC(N)=O)C(=O)N[C@@H](CCCCNC(=O)[C@@H](N)CCCCNC(=O)CC[C@H](NC(=O)CC[C@H](NC(=O)COCCOCCNC(=O)CC[C@H](NC(=O)CC[C@H](NC(=O)CC[C@H](NC(=O)CCCCCCCCCCCCCCCCCCC(=O)O)C(=O)O)C(=O)O)C(=O)O)C(=O)O)C(=O)O)C(=O)NC(C)(C)C(=O)N[C@H](C(=O)N[C@@H](CCCNC(=N)N)C(=O)N[C@@H](CCC(N)=O)C(=O)N[C@@H](CCCNC(=N)N)C(=O)N[C@@H](Cc1ccc(O)cc1)C(N)=O)[C@@H](C)O [Compound 162, Y-Aib-E-G-T-F-T-S-D-Y-S-I-Aib-L-E-K-Q-A-E-Aib-A-F-V-R-H-L-I-N-K(1,3)-Aib-T-R-Q-R-Y-NH2.C20DA-gGlu-gGlu-gGlu-OEG-gGlu-gGlu-eLys(1,2)]"
0.5 nM,,10000 µg/mL,125 nM,"CC[C@H](C)[C@H](NC(=O)[C@H](CC(C)C)NC(=O)[C@H](Cc1c[nH]cn1)NC(=O)[C@H](CCCNC(=N)N)NC(=O)[C@@H](NC(=O)[C@H](Cc1ccccc1)NC(=O)[C@H](C)NC(=O)C(C)(C)NC(=O)[C@H](CCC(N)=O)NC(=O)[C@H](C)NC(=O)[C@H](CCC(N)=O)NC(=O)[C@H](CCCCN)NC(=O)[C@H](CCC(=O)O)NC(=O)[C@H](CC(C)C)NC(=O)C(C)(C)NC(=O)[C@@H](NC(=O)[C@H](CO)NC(=O)[C@H](Cc1ccc(O)cc1)NC(=O)[C@H](CC(=O)O)NC(=O)[C@H](CO)NC(=O)[C@@H](NC(=O)[C@H](Cc1ccccc1)NC(=O)[C@@H](NC(=O)CNC(=O)[C@H](CCC(=O)O)NC(=O)C(C)(C)NC(=O)[C@@H](N)Cc1ccc(O)cc1)[C@@H](C)O)[C@@H](C)O)[C@@H](C)CC)C(C)C)C(=O)N[C@@H](CC(N)=O)C(=O)N[C@@H](CCCCNC(=O)COCCOCCNC(=O)CC[C@H](NC(=O)CC[C@H](NC(=O)CC[C@H](NC(=O)CC[C@H](NC(=O)CC[C@H](NC(=O)CC[C@H](NC(=O)CCCCCCCCCCCCCCCCCCC(=O)O)C(=O)O)C(=O)O)C(=O)O)C(=O)O)C(=O)O)C(=O)O)C(=O)NC(C)(C)C(=O)N[C@H](C(=O)N[C@@H](CCCNC(=N)N)C(=O)N[C@@H](CCC(N)=O)C(=O)N[C@@H](CCCNC(=N)N)C(=O)N[C@@H](Cc1ccc(O)cc1)C(N)=O)[C@@H](C)O [Compound 99, Y-Aib-E-G-T-F-T-S-D-Y-S-I-Aib-L-E-K-Q-A-Q-Aib-A-F-V-R-H-L-I-N-K(1,3)-Aib-T-R-Q-R-Y-NH2.C20DA-gGlu-gGlu-gGlu-gGlu-gGlu-gGlu-OEG(1,2)]"
